Measured values: article PMC10992250, “Enzymatic synthesis of high-titer nicotinamide mononucleotide with a new nicotinamide riboside kinase and an efficient ATP regeneration system” (Bioresources and Bioprocessing, 2022)

Tests used:
Gbst-AcK = biological target: T1, Gbst-AcK (Geobacillus stearothermophilus, UniProt A0ACH1E729); test: HPLC of ATP formation; type: biochemical; settings: […] ADP, […] AcP, […] MgCl2, […] KPB pH […] °C
T1 construct: gene ackA; codon-optimised gene in pET21a (NdeI/XhoI, no stop codon; C-terminal vector His tag), E. coli BL21(DE3), Ni column
T1 sequence (A0ACH1E729 1-396): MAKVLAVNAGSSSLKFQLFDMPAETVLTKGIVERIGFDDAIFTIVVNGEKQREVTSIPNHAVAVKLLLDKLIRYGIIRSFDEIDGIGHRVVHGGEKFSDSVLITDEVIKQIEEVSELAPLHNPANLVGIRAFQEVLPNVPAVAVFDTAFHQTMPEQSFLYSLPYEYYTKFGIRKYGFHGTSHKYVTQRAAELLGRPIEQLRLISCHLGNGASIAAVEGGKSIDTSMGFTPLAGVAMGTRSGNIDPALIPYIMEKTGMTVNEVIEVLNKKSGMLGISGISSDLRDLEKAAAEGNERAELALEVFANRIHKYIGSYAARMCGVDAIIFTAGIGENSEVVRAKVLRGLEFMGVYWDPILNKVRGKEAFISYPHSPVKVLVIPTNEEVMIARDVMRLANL

[1] = tested on: T2, NC(=O)c1ccc[n+]([C@@H]2O[C@H](CO)[C@@H](O)[C@H]2O)c1; test: purified protein; type: biochemical, Kluyveromyces marxianus; settings: apparent, 0.5 mM ATP, 12 mM MgCl2, 50 mM Tris-HCl pH 7.5, 50 mM NaCl, 50 mM KCl, 0.01% BSA, 30 °C
T2 construct: codon-optimised gene in pET21a (NdeI/XhoI, no stop codon; C-terminal vector His tag), E. coli BL21(DE3), Ni column; about 27 kDa

[2] = tested on: T3, Nc1ncnc2c1ncn2[C@@H]1O[C@H](COP(=O)(O)OP(=O)(O)OP(=O)(O)O)[C@@H](O)[C@H]1O; test: purified protein; type: biochemical, Kluyveromyces marxianus; settings: apparent, 0.5 mM NR, 12 mM MgCl2, 50 mM Tris-HCl pH 7.5, 50 mM NaCl, 50 mM KCl, 0.01% BSA, 30 °C
T3 construct: codon-optimised gene in pET21a (NdeI/XhoI, no stop codon; C-terminal vector His tag), E. coli BL21(DE3), Ni column; about 27 kDa

Nc1ncnc2c1ncn2[C@@H]1O[C@H](COP(=O)(O)OP(=O)(O)O)[C@@H](O)[C@H]1O [ADP]
HPLC of ATP formation (Gbst-AcK): assayed as the generation of ATP from ADP with a sufficient amount of AcP

CC(=O)OP(=O)(O)O [AcP]
HPLC of ATP formation (Gbst-AcK): assayed as the generation of ATP from ADP with a sufficient amount of AcP

Klm-NRK (Kluyveromyces marxianus DMKU3-1042)
Km [1]: 45 ± 11 µM
Km [2]: 70 ± 6 µM
